± gives the expanded uncertainty stated by the source.
Details: Liquid, Ebulliometric method (Recirculating still)

vapor or sublimation pressure (390.48 K) | SMILES | vapor or sublimation pressure (399.15 K)
101.3 ± 0.91 kPa | CCCCO [butan-1-ol] | 
 | CCCCOC(C)=O [butyl ethanoate] | 101.3 ± 0.91 kPa
